The subject of this test is U87MG cells. The test is described as follows: Cellular assay for IDH1m inhibitors: inhibition of 2-HG production in U87MG cells (LC-MS). Type of test: cell-based. The procedure:
Cells (HT1080 or U87MG) are grown in T125 flasks in DMEM containing 10% FBS, 1× penicillin/streptomycin and 500 ug/mL G418 (present in U87MG cells only). They are harvested by trypsin and seeded into 96 well white bottom plates at a density of 5000 cell/well in 100 ul/well in DMEM with 10% FBS. […] Cells are incubated overnight at 37° C. in 5% CO2. The next day test compounds are made up at 2× the final concentration and 100 ul are added to each cell well. The final concentration of DMSO is 0.2% and the DMSO control wells are plated in row G. The plates are then placed in the incubator for 48 hours. […] The cell plate is placed back in the incubator for another 24 hours. At 72 hours post compound addition, 10 mL/plate of Promega Cell Titer Glo reagent is thawed and mixed. The cell plate is removed from the incubator and allowed to equilibrate to room temperature. Then 100 ul of Promega Cell Titer Glo reagent is added to each well of media. The cell plate is then placed on an orbital shaker for 10 minutes and then allowed to sit at room temperature for 20 minutes. The plate is then read for luminescence with an integration time of 500 ms.

pIC50: −log10 of the molar value. Some results are limits rather than exact numbers.

Compound `O=C(NC1CCC(F)(F)CC1)[C@H](c1ccccc1Cl)N(C(=O)[C@@H]1CCC(=O)N1c1ncccn1)c1cccc(F)c1` [compound 4, (S)—N—((S)-1-(2-chlorophenyl)-2-((4,4-difluorocyclohexyl)amino)-2-oxoethyl)-N-(3-fluoro-phenyl)-5-oxo-1-(pyrimidin-2-yl)pyrrolidine-2-carboxamide] had a pIC50 (Homo sapiens, U-87 MG, 48 h) of over 7.00. Same read-out and setting: with `CN1C[C@@H](C(=O)N(c2cccc(F)c2)[C@H](C(=O)NC2CC(F)(F)C2)c2ccccc2Cl)N(c2cc(C#N)ccn2)C1=O` [compound 79] the figure was over 7.00. In turn, “(S)—N—((S)-1-(2-Chlorophenyl)-2-(3,3-difluorocyclobutylamino)-2-oxoethyl)-1-(3-cyanophenyl)-N-(1H-indazol-7-yl)-5-oxopyrrolidine-2-carboxamide [compound 186]” showed a pIC50 (inhibition of 2-HG production, U87MG cells, 48 hours) of over 7.00.

Source of the values: patent publication US11667673B2, “Therapeutically active compounds and their methods of use” (Servier Pharmaceuticals LLC, priority 2013, dated 2023).
